Reference: patent US20070161645A1, “Thiazole inhibitors targeting resistant kinase mutations” (TargeGen, Inc., priority 2005, published 2007)
Structures can show the parent of a compound that is named as a salt. Where two headings read alike, the source gives them in different places.

Key:
[1] = molecular target: T1, Abl kinase (Homo sapiens, UniProt P00519); test: Abl Kinase Assay (KinaseGlo luminescent detection of residual ATP); format: biochemical
T1 construct: purchased Invitrogen
Procedure: Kinase activity was assessed using luminescent detection (KinaseGlo, Promega) of residual ATP concentration in reaction mixtures containing optimized levels of kinase, substrate, ATP, compound and appropriate buffers. Kinase, substrate and ATP concentrations were determined per the supplier's recommendations. Briefly, this involved running concentration curves to select for optimal signal.
The reaction mixture (50 μl/well) consisted of Abl kinase (Invitrogen, 20 ng/well); Abltide peptide substrate (Upstate, 100 μM) and ATP (500 nM). Each compound was evaluated at a top concentration of 10 μM with 1:3 dilution steps, 10 dilution steps total. Compound was diluted into DMSO and transferred to the reaction plate, resulting in a final DMSO concentration of 2%. This amount of DMSO was determined not to interfere with the enzyme. The reaction was conducted at 37° C. for 60 minutes. The degree of inhibition was assessed using IC50 determinations, which were obtained using GraphPad Prism4.

[2] = molecular target: T2, Abl (T315I) (Homo sapiens, UniProt P00519, T315I); test: Abl (T315I) Kinase Assay (KinaseGlo luminescent detection of residual ATP); format: biochemical
T2 construct: purchased Upstate
Procedure: The assay was performed similarly to the Abl kinase assay. Abl (T3151) (Upstate, 17 ng/well); Abltide substrate (100 μM) and ATP (5 nM) comprised the reaction mixture. Compound was similarly diluted, and the reaction plate was incubated for 60 minutes at 37° C. IC50's were calculated as for the Abl kinase assay using GraphPad Prism4.

[3] = Abl kinase 20 ng/well, Abltide 100 μM, ATP 500 nM, 60 minutes at 37° C., read-out: Abl IC50
[4] = Abl (T315I) 17 ng/well, Abltide 100 μM, ATP 5 nM, 60 minutes at 37° C., read-out: Abl (T315I) IC50

| SMILES | IC50 [1, 3] | IC50 [2, 4] | IC50 [1] | IC50 [2] |
| --- | --- | --- | --- | --- |
| O=S(=O)(NCCN1CCCC1)c1ccc(Nc2ncc(C=Cc3cc(O)ccc3Cl)s2)cc1 [Compound IV, 4-{5-[2-(2-Chloro-5-hydroxy-phenyl)-vinyl]-thiazol-2-ylamino}-N-(2-pyrrolidin-1-yl-ethyl)-benzenesulfonamide] | 890 nM |  |  |  |
| Cc1nc(Nc2ncc(/C=C\c3cccc(O)c3)s2)cc(N2CCC(O)CC2)n1 [Compound VII, cis-1-(6-{5-[2-(3-Hydroxy-phenyl)-vinyl]-thiazol-2-ylamino}-2-methyl-pyrimidin-4-yl)-piperidin-4-ol] | 29 nM | 269 nM |  |  |
| Oc1ccc(/C=C/c2cnc(Nc3cccc(N4CCNCC4)c3)s2)cc1 [Compound XIV, 4-{2-[2-(3-Piperazin-1-yl-phenylamino)-thiazol-5-yl]-vinyl}-phenol] | 24 nM | 51 nM |  |  |
| O=C(Nc1ccc(/C=C/c2cnc(Nc3cccc(N4CCNCC4)c3)s2)cc1)c1cccc(C(F)(F)F)c1 [Compound XXIII, N-(4-{2-[2-(3-Piperazin-1-yl-phenylamino)-thiazol-5-yl]-vinyl}-phenyl)-3-trifluoromethyl-benzamide] | 307 nM | 7140 nM |  |  |
| Cc1nc(Nc2ncc(/C=C/c3ccc4[nH]ccc4c3)s2)cc(N2CCNCC2)n1 [Compound XV, {5-[2-(1H-Indol-5-yl)-vinyl]-thiazol-2-yl}-(2-methyl-6-piperazin-1-yl-pyrimidin-4-yl)-amine] | 54 nM | 343 nM |  |  |
| Cc1nc(Nc2ncc(/C=C/c3ccc(Cl)c4[nH]ccc34)s2)cc(N2CCNCC2)n1 [4-{5-[2-(3-Hydroxy-phenyl)-vinyl]-pyrimidine-2-ylamino}-N-piperdin-4-yl-benzenesulfonamide] | 70 nM | 50 nM |  |  |
| Cc1nc(Nc2ncc(/C=C/c3ccc4nc(N)sc4c3)s2)cc(N2CCNCC2)n1 [Compound XIX, 6-[(E)-2-{2-[(2-Methyl-6-piperazin-1-ylpyrimidin-4-yl)amino]-1,3-thiazol-5-yl}vinyl]-1,3-benzothiazol-2-amine] |  |  | 16 nM | 111 nM |
| Cc1nc(Nc2ncc(/C=C/c3ccc(O)cc3)s2)cc(N2CCN(CCO)CC2)n1 [Compound III, 4-[2-(2-{6-[4-(2-Hydroxy-ethyl)-piperazin-1-yl]-2-methyl-pyrimidin-4-yl-amino}-thiazol-5-yl)-vinyl]-phenol] | 26 nM | 66 nM |  |  |
| COc1cccc(/C=C/c2cnc(Nc3cc(N4CCNCC4)nc(C)n3)s2)c1 [Compound XXI, (E)-5-(3-Methoxystyryl)-N-(2-methyl-6-(piperazin-1-yl)pyrimidin-4-yl)thiazol-2-amine hydrochloride] |  |  | 224 nM | 605 nM |
| Oc1cccc(/C=C/c2cnc(Nc3cc(N4CCNCC4)ncn3)s2)c1 [Compound XVII, 3-{2-[2-(6-Piperazin-1-yl-pyrimidin-4-ylamino)-thiazol-5-yl]-vinyl}-phenol] | 4.4 nM | 35 nM |  |  |
| O=S(=O)(c1cccc(Nc2ncc(/C=C/c3cccc(O)c3)s2)c1)N1CCNCC1 [Compound VI, 3-(-{2-[3-(Piperazine-1-sulfonyl)-phenylamino]-thiazol-5yl}-vinyl)-phenol] |  |  | 129 nM | 2650 nM |
| O=S(=O)(c1ccc(Nc2ncc(/C=C/c3cccc(O)c3)s2)cc1)N1CCNCC1 [Compound XI, 3-(-{2-[4-(Piperazine-1-sulfonyl)-phenylamino]-thiazol-5yl}-vinyl)-phenol] | 137 nM | 437 nM |  |  |
| O=S(=O)(c1ccc(Nc2ncc(/C=C/c3ccc(O)cc3)s2)cc1)C1CCNCC1 |  |  | 215 nM | 262 nM |
| CN(CCN1CCCC1)S(=O)(=O)c1cccc(Nc2ncc(/C=C/c3ccc(O)cc3)s2)c1 [Compound II, 3-{5-[2-(4-Hydroxy-phenyl)-vinyl]-thiazol-2-ylaminol}-N-methyl-N-(2-pyrrolidin-1-yl-ethyl)-benzenesulfonamide, Hydrochloride] |  |  | 393 nM | 827 nM |
| Cc1nc(Nc2ncc(/C=C/c3cccc4[nH]ncc34)s2)cc(N2CCNCC2)n1 [Compound XVI, {5-[2-(1H-Indazol-4-yl)-vinyl]-thiazol-2-yl}-(2-methyl-6-piperazin-1-yl-pyrimidin-4-yl)-amine] | 20 nM | 328 nM |  |  |
| OCCN1CCN(c2cccc(Nc3ncc(/C=C/c4ccc5[nH]ccc5c4)s3)c2)CC1 [Compound V, 2-(4-(3-(5-((E)-2-(1H-indol-5-yl)vinyl)thiazol-2-ylamino)phenyl)piperazin-1-yl)ethanol] |  |  | 174 nM | 1090 nM |
| Cc1nc(Nc2ncc(/C=C/c3cccc(O)c3)s2)cc(N2CCNCC2)n1 [Compound XX, (E)-3-(2-(2-(2-Methyl-6-(piperazin-1-yl)pyrimidin-4-ylamino)thiazol-5-yl)vinyl)phenol hydrochloride] |  |  | 1.5 nM | 18 nM |
| Cc1nc(Nc2ncc(/C=C/c3ccc4[nH]ncc4c3)s2)cc(N2CCNCC2)n1 [Compound XXIV, {5-[2-(1H-Indazol-5-yl)-vinyl]-thiazol-2-yl}-(2-methyl-6-piperazin-1-yl-pyrimidin-4-yl)-amine] | 16 nM | 350 nM |  |  |
| Cc1nc(Nc2ncc(/C=C/c3cccc(O)c3)s2)cc(N2CCCNCC2)n1 [Compound XVIII, 3-{2-[2-(6-[1,4]Diazepan-1-yl-2-methyl-pyrimidin-4-ylamino)-thiazol-5-yl]-vinyl}-phenol] | 2.7 nM | 31 nM |  |  |
| Oc1ccc(/C=C/c2cnc(Nc3cccc(OCCN4CCCC4)c3)s2)cc1 [Compound XXII, 4-(2-{2-[3-(2-Pyrrolidin-1-yl-ethoxy)-phenylamino]-thiazol-5-yl}-vinyl)-phenol] |  |  | 161 nM | 272 nM |
| Oc1cccc(/C=C/c2cnc(Nc3cccc(N4CCNCC4)c3)s2)c1 [Compound X, 3-((E)-2-(2-(3-(Piperazin-1-yl)phenylamino)thiazol-5-yl)vinyl)phenol] |  |  | 14 nM | 381 nM |
| Oc1cccc(/C=C/c2cnc(Nc3ccc(N4CCNCC4)cc3)s2)c1 [Compound IX, 3-((E)-2-(2-(4-(Piperazin-1-yl)phenylamino)thiazol-5-yl)vinyl)phenol] |  |  | 15 nM | 154 nM |
| Cc1nc(Nc2ncc(/C=C/c3cccc(O)c3)s2)cc(N2CCC(O)CC2)n1 [Compound VIII, trans-1-(6-{5-[2-(3-Hydroxy-phenyl)-vinyl]-thiazol-2-ylamino}-2-methyl-pyrimidin-4-yl)-piperidin-4-ol] | 24 nM | 208 nM |  |  |
